The term IC50 denotes the concentration at which inhibition is half-maximal.

For one assay, the species on record is Homo sapiens. The assay is described as follows: Inhibition of Rho/MRTF/SRF mediated signaling in human dermal fibroblasts assessed as suppression of myofibroblast activation by measuring reduction in TGFbeta-induced alpha-SMA expression incubated for 3 days relative to perfenidone.
Assay [1] is filed under the species Mus musculus. The experiment in a line: Inhibition of Rho/MRTF/SRF mediated signaling in mouse NIH/3T3 cells assessed as inhibition of fibrosis markers by measuring reduction in LPA-induced COL1A2-hn mRNA expression by qRT-PCR assay relative to perfenidone. The format is cell-based.
The subject of assay [2] is Mus musculus. The experiment in a line: Suppression of fibrosis in C57bl/6 mouse model of bleomycin-induced dermal fibrosis at 100 mg/kg, bid dosed via oral gavage. It counts as functional, organism-based.
The species named for assay [3] is Mus musculus. The assay is described as follows: Inhibition of Rho/MRTF/SRF mediated signaling in mouse NIH/3T3 cells assessed as inhibition of fibrosis markers by measuring reduction in LPA-induced ACTA2 mRNA expression by qRT-PCR assay relative to perfenidone. It counts as cell-based. Background: In qPCR the cycle at which signal appears reflects the starting amount.

A short description of assay [4]: Inhibition of Rho/MRTF/SRF mediated signaling (unknown origin) assessed as reduction in MRTF/SRF-regulated gene transcription by SRE-luciferase expression based assay. Set-up: species or system Homo sapiens.
The nature of assay [5]: Inhibition of Rho/MRTF/SRF mediated signaling (unknown origin) assessed as reduction in MRTF/SRF-regulated gene transcription by SRE-luciferase expression based assay relative to control. On the set-up: species or system Homo sapiens.

The source made the active and inactive calls. The calls are words filed in the database; no cut-off is given here.

As for `O=C(Nc1ccc(Cl)cc1)C1CCCN(C(=O)c2cccc(-c3ccco3)c2)C1` (stereo unspecified), the fold change (FC) in the assay listed under Homo sapiens, in the assay filed under Mus musculus [1] and in the assay filed under Mus musculus [3] was 100 throughout. Further, in the assay on Mus musculus [2], the outcome was Active. Take `O=C(O)CCSc1nnc(-c2ccccc2)o1`: the IC50 in assay [4] worked out at 3500 nM. As to `COc1ccc(-c2nnc(SCCC(=O)O)o2)cc1`, in assay [4], the IC50 came out at 160 nM. With `O=C(O)CCCSc1nnc(-c2ccc(Cl)cc2Cl)o1`, the IC50 in assay [4] was 1.8 nM. `Cc1ccc(-c2nnc(SCCC(=O)O)o2)c(Cl)c1`: in assay [4], the half-inhibitory concentration (IC50) was 1.5 nM. On to `CC(ONC(=O)c1cc(C(F)(F)F)cc(C(F)(F)F)c1)C(=O)Nc1ccc(Cl)cc1` (stereo unspecified), for which, in assay [5], the half-inhibitory concentration (IC50) amounted to 1000 nM. `Cc1ccc(-c2nnc(SCCC(=O)O)o2)cc1`: in assay [4], the IC50 is 34 nM. Turning to `O=C(O)CCSc1nnc(-c2cccc(Cl)c2)o1`, the IC50 in assay [4] amounted to 1500 nM. In the case of `CCOC(=O)CCSc1nnc(-c2ccc(Cl)cc2Cl)o1`, the IC50 in assay [4] was determined as 2.6 nM. On to `Cc1cccc(-c2nnc(SCCC(=O)O)o2)c1`, for which the half-inhibitory concentration (IC50) in assay [4] worked out at 180 nM. On the same count and under the same terms, then `COc1ccc(-c2nnc(SCCC(=O)O)o2)c(Cl)c1`, with 2.6 nM. On the same count and under the same terms, then `O=C(O)CCSc1nnc(-c2ccc(Cl)cc2)o1`, with 340 nM; and `COc1cccc(-c2nnc(SCCC(=O)O)o2)c1`, with 3600 nM.

Values taken from ChEMBL document CHEMBL4417623, “Methods and compositions for inhibiting rho/mrtf-mediated diseases and conditions” (2015).
